Data taken from ChEMBL document CHEMBL4219173, “2,4-Diamino-8-quinazoline carboxamides as novel, potent inhibitors of the NAD hydrolyzing enzyme CD38: Exploration of the 2-position structure-activity relationships” (Bioorg Med Chem, 2018).
≈ marks a conversion by molar mass, not a printed value.

Key:
[1] = biological target: T1, ADP-ribosyl cyclase/cyclic ADP-ribose hydrolase 1 (Homo sapiens, UniProt P28907); test: Inhibition of recombinant human CD38 extracellular domain expressed in Pichia pastoris using NAD as substrate pretreated for 30 mins followed by substrate addition measured after 15 to 45 mins
T1 sequence (P28907 whole entry): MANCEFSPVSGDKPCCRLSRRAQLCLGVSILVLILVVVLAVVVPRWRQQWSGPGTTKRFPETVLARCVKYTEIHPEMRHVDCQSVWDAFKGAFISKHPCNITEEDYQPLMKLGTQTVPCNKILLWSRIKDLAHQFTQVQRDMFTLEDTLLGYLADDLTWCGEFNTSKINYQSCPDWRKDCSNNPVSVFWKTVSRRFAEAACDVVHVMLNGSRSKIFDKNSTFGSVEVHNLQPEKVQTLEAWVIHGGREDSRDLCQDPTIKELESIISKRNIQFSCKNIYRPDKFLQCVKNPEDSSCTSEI

[2] = biological target: Cytochrome P450 3A4 (Homo sapiens, UniProt P08684); test: Inhibition of CYP3A4 (unknown origin); type: ADME
[3] = biological target: Voltage-gated inwardly rectifying potassium channel KCNH2 (Homo sapiens, UniProt Q12809); test: Inhibition of human ERG
[4] = Lipophilicity, log D of the compound by chromatographic method; type: physicochemical
[5] = Aqueous solubility of the compound in FaSSIF; type: physicochemical
[6] = Permeability of the compound by PAMPA; type: ADME; details: read-out: permeability
[7] = Clearance in mouse at 2 mg/kg, iv; type: ADME, organism-based; details: in vivo
[8] = Volume of distribution at steady state in mouse at 2 mg/kg, iv; type: ADME, organism-based; details: in vivo, read-out: Vdss
[9] = Half life in mouse at 2 mg/kg, iv; type: ADME, organism-based; details: in vivo
[10] = system: Mus musculus; test: Dose normalized AUC in mouse at 30 mg/kg, po; type: ADME, organism-based; details: in vivo
[11] = Oral bioavailability in mouse at 30 mg/kg; type: ADME, organism-based; details: in vivo

Voltage-gated inwardly rectifying potassium channel KCNH2, sequence (Q12809 whole entry): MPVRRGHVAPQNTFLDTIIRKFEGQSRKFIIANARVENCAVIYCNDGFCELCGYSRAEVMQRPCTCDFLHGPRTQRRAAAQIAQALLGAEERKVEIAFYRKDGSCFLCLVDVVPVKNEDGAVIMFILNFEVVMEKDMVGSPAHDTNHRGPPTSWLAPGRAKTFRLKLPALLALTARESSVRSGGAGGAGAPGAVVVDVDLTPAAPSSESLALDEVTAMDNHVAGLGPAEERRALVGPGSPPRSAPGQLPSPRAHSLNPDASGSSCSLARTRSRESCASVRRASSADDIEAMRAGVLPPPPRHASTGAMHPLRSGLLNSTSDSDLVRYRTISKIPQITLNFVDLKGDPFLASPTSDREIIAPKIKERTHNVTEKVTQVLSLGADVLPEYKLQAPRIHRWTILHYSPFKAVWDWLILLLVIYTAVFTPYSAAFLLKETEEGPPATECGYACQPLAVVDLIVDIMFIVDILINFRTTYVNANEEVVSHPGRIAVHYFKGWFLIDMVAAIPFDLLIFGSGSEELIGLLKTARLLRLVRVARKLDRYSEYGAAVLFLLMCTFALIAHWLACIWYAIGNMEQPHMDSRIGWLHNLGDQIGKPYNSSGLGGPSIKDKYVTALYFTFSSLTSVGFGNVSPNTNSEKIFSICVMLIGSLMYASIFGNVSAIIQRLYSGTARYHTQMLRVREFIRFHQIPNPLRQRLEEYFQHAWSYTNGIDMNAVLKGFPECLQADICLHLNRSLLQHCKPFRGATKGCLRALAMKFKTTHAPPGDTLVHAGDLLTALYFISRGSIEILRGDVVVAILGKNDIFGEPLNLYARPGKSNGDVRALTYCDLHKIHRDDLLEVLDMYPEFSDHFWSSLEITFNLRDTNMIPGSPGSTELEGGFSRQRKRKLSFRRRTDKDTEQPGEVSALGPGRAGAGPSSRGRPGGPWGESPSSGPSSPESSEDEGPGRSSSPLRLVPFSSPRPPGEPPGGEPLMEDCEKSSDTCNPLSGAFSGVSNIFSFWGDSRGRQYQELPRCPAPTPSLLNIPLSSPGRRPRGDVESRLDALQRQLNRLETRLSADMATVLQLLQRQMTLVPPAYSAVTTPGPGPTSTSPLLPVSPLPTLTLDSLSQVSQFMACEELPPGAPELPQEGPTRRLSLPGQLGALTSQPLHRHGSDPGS
Cytochrome P450 3A4, sequence (P08684 whole entry): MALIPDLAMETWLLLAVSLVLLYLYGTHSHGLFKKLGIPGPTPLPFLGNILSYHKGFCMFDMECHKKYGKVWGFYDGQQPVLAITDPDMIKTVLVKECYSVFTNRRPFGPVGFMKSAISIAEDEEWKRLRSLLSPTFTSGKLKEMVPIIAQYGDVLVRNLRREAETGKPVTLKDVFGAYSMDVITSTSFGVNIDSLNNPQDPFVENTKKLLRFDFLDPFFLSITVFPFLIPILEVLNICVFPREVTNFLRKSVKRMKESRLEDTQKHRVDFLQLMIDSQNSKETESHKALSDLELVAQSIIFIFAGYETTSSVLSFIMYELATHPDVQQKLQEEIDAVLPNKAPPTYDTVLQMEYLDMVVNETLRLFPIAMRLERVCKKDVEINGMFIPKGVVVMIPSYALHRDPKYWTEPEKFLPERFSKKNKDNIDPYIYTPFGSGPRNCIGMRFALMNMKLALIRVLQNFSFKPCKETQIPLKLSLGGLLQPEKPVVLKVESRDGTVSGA

Row | Compound | IC50 [1] | further results
1 | NC(=O)c1cccc2c(NCc3c(F)cccc3C(F)(F)F)cc(NCc3cn[nH]c3)nc12 | 72 nM | –
2 | C[C@H]1c2cn[nH]c2CN1C1=NC(NCc2c(F)cccc2C(F)(F)F)c2cccc(C(N)=O)c2N1 (some centres not stated) | 2500 nM | –
3 | NC(=O)c1cccc2c1NC(N1Cc3c(N)n[nH]c3C13CCCC3)=NC2NCc1c(F)cccc1C(F)(F)F (configuration not stated) | 17 nM | –
4 | C[C@@H]1c2[nH]nc(N)c2CN1C1=NC(NCc2c(F)cccc2C(F)(F)F)c2cccc(C(N)=O)c2N1 (some centres not stated) | 45 nM | –
5 | CN(Cc1ccn[nH]1)c1nc(NCc2c(F)cccc2C(F)(F)F)c2cccc(C(N)=O)c2n1 | 1900 nM | –
6 | NC(=O)c1cccc2c(NCc3c(F)cccc3C(F)(F)F)nc(NCc3ccn[nH]3)nc12 | 2300 nM | –
7 | NC(=O)c1cccc2c(NCc3c(F)cccc3C(F)(F)F)nc(NCc3ncc[nH]3)nc12 | 6800 nM | –
8 | NC(=O)c1cccc2c1NC(N1Cc3c(N)n[nH]c3C13CCC3)=NC2NCc1c(F)cccc1C(F)(F)F (configuration not stated) | 7.8 nM | –
9 | Cc1n[nH]cc1CNc1nc(NCc2c(F)cccc2C(F)(F)F)c2cccc(C(N)=O)c2n1 | 620 nM | –
10 | NC(=O)c1cccc2c1NC(N1CCCc3cn[nH]c3C1)=NC2NCc1c(F)cccc1C(F)(F)F (configuration not stated) | 19000 nM | –
11 | C[C@H]1c2[nH]nc(N)c2CN1C1=NC(NCc2c(F)cccc2C(F)(F)F)c2cccc(C(N)=O)c2N1 (some centres not stated) | 310 nM | –
12 | NC(=O)c1cccc2c1NC(N1Cc3c(N)n[nH]c3C13CC3)=NC2NCc1c(F)cccc1C(F)(F)F (configuration not stated) | 4 nM | chromatographic logD [4]: 3.9
13 | Cc1cc(NCc2c(F)cccc2C(F)(F)F)c2cccc(C(N)=O)c2n1 | – | chromatographic logD [4]: 5.1
14 | NC(=O)c1cccc2c(NCc3c(F)cccc3C(F)(F)F)nc(NCc3cn[nH]c3)nc12 | 450 nM | –
15 | NC(=O)c1cccc2c(NCc3c(F)cccc3C(F)(F)F)nc(NCc3nc[nH]n3)nc12 | 4300 nM | –
16 | CCc1n[nH]c2c1CN(C1=NC(NCc3c(F)cccc3C(F)(F)F)c3cccc(C(N)=O)c3N1)C2 (configuration not stated) | 83 nM | –
17 | Cn1ncc2c1CN(C1=NC(NCc3c(F)cccc3C(F)(F)F)c3cccc(C(N)=O)c3N1)C2 (configuration not stated) | 82 nM | solubility [5]: 2 µg/mL (≈ 4.1 µM)
18 | C[C@@H]1c2cn[nH]c2CN1C1=NC(NCc2c(F)cccc2C(F)(F)F)c2cccc(C(N)=O)c2N1 (some centres not stated) | 330 nM | –
19 | NC(=O)c1c(C(F)(F)F)ccc2c(NCc3c(F)cccc3C(F)(F)F)nc(NCc3ncco3)nc12 | 4200 nM | –
20 | C[C@@H](O)c1n[nH]c2c1CN(C1=NC(NCc3c(F)cccc3C(F)(F)F)c3cccc(C(N)=O)c3N1)C2 (some centres not stated) | 230 nM | solubility [5]: 11 µg/mL (≈ 21.3 µM)
21 | Cc1n[nH]c2c1CN(C1=NC(NCc3c(F)cccc3C(F)(F)F)c3cccc(C(N)=O)c3N1)[C@H]2C (some centres not stated) | 170 nM | –
22 | NC(=O)c1cccc2c(NCc3c(F)cccc3C(F)(F)F)nc(NCc3c[nH]cn3)nc12 | 1600 nM | –
23 | C[C@H](O)c1n[nH]c2c1CN(C1=NC(NCc3c(F)cccc3C(F)(F)F)c3cccc(C(N)=O)c3N1)C2 (some centres not stated) | 110 nM | solubility [5]: 12 µg/mL (≈ 23.2 µM)
24 | NC(=O)c1cccc2c(NCc3c(F)cccc3C(F)(F)F)nc(N3Cc4cn[nH]c4C3)nc12 | 92 nM | solubility [5]: 6 µg/mL (≈ 12.7 µM)

Second part, led by results:

Row | IC50 [1] | Compound | further results
25 | 410 nM | C[C@H]1c2n[nH]cc2CN1C1=NC(NCc2c(F)cccc2C(F)(F)F)c2cccc(C(N)=O)c2N1 (some centres not stated) | –
26 | 20 nM | CC1(C)c2[nH]nc(N)c2CN1C1=NC(NCc2c(F)cccc2C(F)(F)F)c2cccc(C(N)=O)c2N1 (configuration not stated) | –
27 | 140 nM | CC(=O)c1n[nH]c2c1CN(C1=NC(NCc3c(F)cccc3C(F)(F)F)c3cccc(C(N)=O)c3N1)C2 (configuration not stated) | –
28 | 8000 nM | NC(=O)c1cccc2c(NCc3c(F)cccc3C(F)(F)F)nc(NCc3nnn[nH]3)nc12 | –
29 | 370 nM | CC[C@H]1c2[nH]ncc2CN1C1=NC(NCc2c(F)cccc2C(F)(F)F)c2cccc(C(N)=O)c2N1 (some centres not stated) | –
30 | 42 nM | Cc1n[nH]c2c1CN(C1=NC(NCc3c(F)cccc3C(F)(F)F)c3cccc(C(N)=O)c3N1)C2 (configuration not stated) | IC50 [2]: 631 nM; IC50 [3]: 12600 nM
31 | 5500 nM | NC(=O)c1cccc2c(NCc3c(F)cccc3C(F)(F)F)nc(NCc3ccon3)nc12 | –
32 | 630 nM | NC(=O)c1cccc2c(NCc3c(F)cccc3C(F)(F)F)nc(N3CCc4[nH]ncc4C3)nc12 | –
33 | 1900 nM | NC(=O)c1cccc2c(NCc3c(F)cccc3C(F)(F)F)nc(N3CCc4cn[nH]c4C3)nc12 | –
34 | 3400 nM | NC(=O)c1cccc2c(NCc3c(F)cccc3C(F)(F)F)nc(NCc3cnco3)nc12 | –
35 | 71 nM | CC[C@@H]1c2[nH]ncc2CN1C1=NC(NCc2c(F)cccc2C(F)(F)F)c2cccc(C(N)=O)c2N1 (some centres not stated) | –
36 | 110 nM | NC(=O)c1cccc2c1NC(N1Cc3[nH]nc(N)c3C1)=NC2NCc1c(F)cccc1C(F)(F)F (configuration not stated) | –
37 | 4100 nM | NC(=O)c1cccc2c1NC(N1Cc3[nH]nc(C(F)(F)F)c3C1)=NC2NCc1c(F)cccc1C(F)(F)F (configuration not stated) | –
38 | 160 nM | Cn1cc2c(n1)CN(C1Nc3c(C(N)=O)cccc3C(NCc3c(F)cccc3C(F)(F)F)N1)C2 (configuration not stated) | –
39 | 1600 nM | NC(=O)c1cccc2c1NC(N1Cc3[nH][nH]c(=O)c3C1)=NC2NCc1c(F)cccc1C(F)(F)F (configuration not stated) | –
40 | 51 nM | C[C@@H]1c2n[nH]cc2CN1C1=NC(NCc2c(F)cccc2C(F)(F)F)c2cccc(C(N)=O)c2N1 (some centres not stated) | Papp [6]: 14.7 ×10⁻⁶ cm/s; IC50 [2]: 158 nM; clearance [7]: 37 mL/min/kg; solubility [5]: 34 µg/mL (≈ 69.7 µM); IC50 [3]: 3160 nM; Vd [8]: 2.7 L/kg; half-life [9]: 1.4 h; AUC/dose [10]: 327 ng·h/mL/(mg/kg); bioavailability [11]: 69%
41 | 21 nM | Cc1n[nH]c2c1CN(C1=NC(NCc3c(F)cccc3C(F)(F)F)c3cccc(C(N)=O)c3N1)[C@@H]2C (some centres not stated) | –
